Assay results: patent US20150290160A1, “Spermidine/Spermine N1-Acetyltransferase Substrates As Anti-Cancer Drug Compounds” (BIOMARK TECHNOLOGIES INC., priority 2012, published 2015)
Like-named read-outs stand apart in the source and are kept apart here.

Assays:
[1] = tested on: U2-OS osteosarcoma cell line (negative control, SSAT non-expressing); experiment: MTT cytotoxicity assay, U2-OS; format: cell-based, human; details: for IC50 values (in words): does not express SSAT
Description: (§1) Each human cancer cell line was incubated with each of the four monoamine test drugs at a range of testing concentrations. Cytotoxicity expressed as half maximal inhibitory concentration or IC50 was determined based on a (dimethyl-2-thiazolyl)-2,5-diphenyl-2H-tetrazolium bromide or MTT assay. In parallel, the expression levels of SSAT in these cell lines were measured using a RT-qPCR assay.
Cells of the ten cell lines were harvested from their established adherent cultures with trypsin EDTA, pelleted by centrifugation, and resuspended in the appropriate medium to yield a suspension of cells for each cell line.
Each of the monoamine test drugs (amantadine, rimantadine, dopamine and L-DOPA) and the positive control (spermidine) was accurately weighed, dissolved and further diluted with sterile water into a series of solutions at 100× of their target incubation concentrations. The target incubation concentrations for amantadine, rimantadine, and dopamine were 0.03, 0.1, 0.3, 1, 3, 10, 30, 100, 300 and 1000 μM. The target incubation concentrations for L-DOPA and the positive control, spermidine, were 0.1, 0.3, 1, 3, 10, 30, 100, 300 and 1000 μM.
Incubation was performed in triplicate at each drug concentration for each cell line tested. […]
(§2) After three days of incubation with substrates, an aliquot of 5 mg/mL MTT was added to each well and then incubated for 1 to 3 hours. […] An aliquot from each well was measured for absorbance at 550 nm or 555 nm on a 96-well flat bottom plate with a microplate reader and DMSO for background absorbance correction.
Cytotoxicity was determined based on treating each cell line with each of the test drugs over a range of concentrations. Following a three day incubation period cytotoxicity was measured by an MTT assay. IC50 values were deduced based on plots of cytotoxicity level expressed as percentage inhibition over the testing concentrations as shown in FIGS. 5 to 14. In parallel to each drug treatment, each cell line was also treated with spermidine as a positive control and the IC50 value for spermidine was determined for comparison.

[2] = tested on: breast cancer cell line BT-549; experiment: cells; details: Homo sapiens, BT-549, 72 h, read-out: IC50 (cytotoxicity)
Description: as §1
(§3) Cells of the ten cell lines were harvested from their established adherent cultures with trypsin EDTA, pelleted by centrifugation, and resuspended in the appropriate medium to yield a suspension of cells for each cell line. […]
as §2
(§4) Cytotoxicity was determined based on treating each cell line with each of the test drugs over a range of concentrations. Following a three day incubation period cytotoxicity was measured by an MTT assay. IC50 values were deduced based on plots of cytotoxicity level expressed as percentage inhibition over the testing concentrations as shown in FIGS. 5 to 14. […]

NCI-H23 (lung cancer) = experiment: MTT cytotoxicity assay, NCI-H23; format: cell-based; details: Homo sapiens, 72 h, NCI-H23, three day incubation
Description: as §1, §3, §2, §4

LNCaP = experiment: MTT cytotoxicity assay, LNCaP
Description: as §1, §3, §2, §4

T-47D = experiment: MTT cytotoxicity assay, T-47D
Description: as §1, §3, §2, §4

[3] = tested on: human cancer cell lines (A549, H322, NCI-H23, MCF-7, T-47D, BT-549, LNCaP, PC-3, Du-145, U2-OS); experiment: MTT cytotoxicity assay, across all cell lines evaluated; format: cell-based; details: 72 h, across all the cell lines evaluated, three day incubation, read-out: IC50 (cytotoxicity), range across cell lines
Description: Three cell lines from each of lung, breast and prostate cancers have been selected based on literature SSAT expression data and used for potential cytotoxicity screening in the MTT assay. The SSAT non-expressing human osteosarcoma cell line U2-OS was used as the negative control cell line.

[4] = tested on: SSAT non-expressing cell lines (U2-OS and HeLa); experiment: Percent confluency during incubation with spermidine, SSAT non-expressing cell lines; format: cell-based, human; details: spermidine from 22 μM to 550 μM, compared among U2-OS, Malme-3M, PC-3, HEK293
[5] = tested on: SSAT over-expressing cell lines (Malme-M3 and PC-3); experiment: Percent confluency during incubation with spermidine, SSAT over-expressing cell lines; format: cell-based, human; details: spermidine from 22 μM to 550 μM; compared among U2-OS, HeLa, Malme-3M, PC-3, HEK293

Question: With `NCCc1ccc(O)c(O)c1` [dopamine, Dopamine] as the molecule, how does the IC50 ([1]; Homo sapiens, U2OS, 72 h, three day incubation, MTT) read?
Answer: 34.1 µM

Question: What about the “IC50 values (in words)” value [1] of the same molecule?
Answer: low IC50 values

Question: And the IC50 [2]?
Answer: 52 µM

Question: For `N[C@@H](Cc1ccc(O)c(O)c1)C(=O)O` [L-DOPA], which “IC50 values (in words)” value [1] is on record?
Answer: low IC50 values

Question: With `NC12CC3CC(CC(C3)C1)C2` [amantadine, Amantadine] as the molecule, how does the IC50 [2] read?
Answer: 1160 µM

Question: What about the IC50 (NCI-H23 (lung cancer)) of the same molecule?
Answer: 1600 µM

Question: And the “cytotoxicity (in words)” value (LNCaP; LNCaP, over-expresses SSAT (>5-fold change))?
Answer: high cytotoxicity

Question: And the “cytotoxicity (in words)” value (T-47D; T-47D, over-expresses SSAT (>2 fold change))?
Answer: high cytotoxicity

Question: What does the source list for `CC(N)C12CC3CC(CC(C3)C1)C2` (stereo not shown) [rimantadine, Rimantadine]?
Answer: cytotoxicity (in words) (LNCaP): high cytotoxicity; cytotoxicity (in words) (T-47D): high cytotoxicity

Question: Which results are given for `NCCCCNCCCN` [spermidine, Spermidine]?
Answer: IC50 [3]: 3.72 to 32.7 µM; relative cell viability, expressed as percent confluency [4]: highest; relative cell viability, expressed as percent confluency [5]: lowest
